Assay results published in US4443475A, “Amides of acyl-carnitines, process for preparing same and pharmaceutical compositions containing such amides” (priority 1979, dated 1984).
Where two headings read alike, the source gives them in different places.

Key:
[1] = Interaction with barbiturates (EVIPAN, loss of righting reflex); format: in vivo; conditions: Mus musculus, ip, mice, EVIPAN 75 mg/kg, read-out: Barbituric interaction, % reduction of RR (righting reflex) loss; for inhibition in vivo at 100 mg/kg: 100 mg/kg i.p. (head); for inhibition in vivo at 50 mg/kg: 50 mg/kg i.p. (head)
[2] = test system: isolated rabbit heart; assay: Inotropic effect on isolated rabbit heart (Langendorff) after anoxia; conditions: Oryctolagus cuniculus, 10 min; 10^-5 gl^-1, isolated rabbit heart, 10 minutes after end of anoxia; read-out: Inotropic Effect, % of controls (increased percentage versus controls)
Experimental: Rabbit hearts isolated by Langendorff's method were perfused in a Ringer solution oxygenated at 38.2° C. The isometric […], ECG and coronary flow were recorded using a "Battaglia-Rangoni" polygraph.
Metabolic damage in the heart muscle was induced by removing the oxygen from the perfusion liquid until contractile force was reduced by 80%.
In these conditions of prolonged anoxia myocardial […] glycolysis was slowed down, accompanied by accumulation of catabolic acids due to storage of pyruvic acid and its conversion to lactic acid which cannot be utilized owing to the depression of the pyridinic enzymes, such as lacticodehydrogenase. This affects anaerobic glycolysis involving an ever increasing number of enzymes, with a progressive and increasingly more critical exhaustion of the myocardium.
Thus there is a whole series of cardiac muscle fatigue levels recorded by the pattern of the parameters taken into account i.e. contractile force, coronary output, heart rate and cardiac rhythm. As soon as the contractile force was reduced by 80%, the perfusion liquid was once again oxygenated without adding other compounds (controls) or with the addition of the compounds under investigation at various concentrations.

[3] = Effect antagonizing adrenaline (mortality); format: in vivo; conditions: Mus musculus, ip, mice, 36 hours, read-out: Antiadrenaline Effects, % mortality reduction; for responders at 100 mg/kg: 100 mg/kg i.p.; for responders at 300 mg/kg: 300 mg/kg i.p.; for responders at 70 mg/kg: 70 mg/kg i.p.; for responders at 50 mg/kg: 50 mg/kg i.p.
Experimental: (d) Effect antagonizing adrenaline
Male Albino Swiss mice weighing 12-22 g, divided into groups of 10, were treated with the compounds under investigation or with saline (controls) i.p. and then 30 minutes later with adrenaline (treated) at a dose capable of causing death in 100% of the control animals due to ventricular fibrillation and cardiac lesions ensuing from increased heart rate, pressure and oxygen consumption by the myocardium.
Mortality was monitored for 36 hours and the effect of the compounds was expressed in % of survivals versus treated animals.

[4] = Antagonism to cardiazol (protection from death by convulsions); format: in vivo; conditions: ip, rat, 5 hours; for responders at 50 mg/kg: 50 mg/kg i.p. (head); for responders at 150 mg/kg: 150 mg/kg i.p. (head); for responders at 100 mg/kg: 100 mg/kg i.p. (head)
[5] = Acute toxicity (LD50), Weil method; conditions: mouse, in vivo, mice (Table I title)
[6] = Anti-arrhythmic (antifibrillation) effect, aconitine-induced arrhythmia; format: in vivo, mice; conditions: Mus musculus, ip, read-out: Antifibrillation Effects, % reduction
Experimental: (c) Anti-arrhythmic effect
In order to evaluate by means of in vivo test the anti-arrhythmic effect exerted by the various carnitine derivatives in addition to and versus the usual in vitro tests, the method described by Nwangwu et al. (Arch. Int. Pharmacodyn., 1977, v. 229, 219) was employed.
This method is carried out by injecting a solution of aconitine into the caudal […] and recording the time of the appearance of arrhythmia and tachycardia from 2 to 60 minutes following the administration of the compounds under investigation.

[7] = Effect on spontaneous motility (ANIMEX); format: in vivo; conditions: Mus musculus, ip, 0.5 h, mice, control 850 ± 65 in 30 min, read-out: Spontaneous motility, % increase versus controls; for change in vivo at 50 mg/kg: 50 mg/kg i.p.; for change in vivo at 25 mg/kg: 25 mg/kg i.p.
Experimental: (g) Effect on spontaneous motility
Male Albino Swiss mice weighing 18-22 g, were divided into two groups of 5 and caged for at least 1 week. One group received the compounds under investigation and the other group (control group) was given the vehicle. The animals remained in their cages and were placed on the ANIMEX (Farad-Sweden) apparatus which recorded the movements for two 30-minute intervals beginning from 5 minutes after administration of the compounds.
Table II gives the results expressed as percentage variation in the number of spontaneous movements of the treated animals versus those of the control animals.

Compound | inhibition in vivo at 100 mg/kg [1] | activation at 0.01 µg/mL [2] | responders at 50 mg/kg [4] | LD50 ([5]; ip, read-out: LD50 i.p.) | LD50 ([5]; oral, read-out: LD50 oral) | inhibition in vivo at 50 mg/kg [6] | change in vivo at 50 mg/kg [7] | inhibition in vivo at 50 mg/kg [1] | change in vivo at 25 mg/kg [7] | other results
CCC(=O)OC(CC(=O)NC(CC(C)C)C(=O)OC)C[N+](C)(C)C (stereo not drawn) [propionyl carnitine amide of leucine methyl ester] | 31% | 45% | 32% | 600 mg/kg | 2350 mg/kg | 75% | 62% |  |  | responders at 100 mg/kg [3]: 70%
CCC(=O)OC(CC(=O)NCCS(=O)(=O)[O-])C[N+](C)(C)C (stereo not drawn) [OCOCH2 CH3; 2-sulfonyl ethyl amino] | 60% | 50% |  | 1500 mg/kg | 4000 mg/kg |  | 40% |  |  | responders at 300 mg/kg [3]: 70%; responders at 150 mg/kg [4]: 40%; inhibition in vivo at 150 mg/kg [6]: 95%
CCOC(=O)CC(O)CNC(=O)CC(C[N+](C)(C)C)OC(C)=O (stereo not drawn) |  | 53% |  | 450 mg/kg | 1300 mg/kg | 65% | 30% | 25% |  | responders at 70 mg/kg [3]: 60%; responders at 150 mg/kg [4]: 70%
COC(=O)C(CC(C)C)NC(=O)CC(C[N+](C)(C)C)OC(C)=O (stereo not drawn) |  | 45% |  | 1000 mg/kg | 3500 mg/kg | 70% |  | 35% | 28% | responders at 50 mg/kg [3]: 75%; responders at 150 mg/kg [4]: 60%
COC(=O)C(NC(=O)CC(C[N+](C)(C)C)OC(C)=O)C(C)C (stereo not drawn) |  | 70% |  | 600 mg/kg | 2400 mg/kg | 100% |  | 40% |  | responders at 50 mg/kg [3]: 80%; responders at 100 mg/kg [4]: 84%; change in vivo at 35 mg/kg ([7]; 35 mg/kg i.p.): 50%
CCC(=O)OC(CC(=O)NC(C(=O)OC)C(C)C)C[N+](C)(C)C (stereo not drawn) |  | 65% |  | 500 mg/kg | 1350 mg/kg |  |  | 58% | 75% | responders at 50 mg/kg [3]: 40%; responders at 35 mg/kg ([4]; 35 mg/kg i.p. (head)): 38%; inhibition in vivo at 35 mg/kg [6]: 60%
CCC(=O)OC(CC(=O)NC(C(=O)OC)C(C)CC)C[N+](C)(C)C (stereo not drawn) | 27% | 65% | 39% | 750 mg/kg | 2500 mg/kg | 65% |  |  |  | responders at 100 mg/kg [3]: 50%; change in vivo at 100 mg/kg ([7]; 100 mg/kg i.p.): 35%
COC(=O)CC(NC(=O)CC(C[N+](C)(C)C)OC(C)=O)C(=O)OC (stereo not drawn) [COCH3; (1,2-dicarbomethoxy ethyl) amino] |  | 48% | 75% | 1500 mg/kg | 4200 mg/kg |  | 60% |  |  | responders at 300 mg/kg [3]: 55%; inhibition in vivo at 75 mg/kg [6]: 80%
CC(=O)OC(CC(=O)NCCS(=O)(=O)[O-])C[N+](C)(C)C (stereo not drawn) [COCH3; 2-sulfonyl ethyl amino, acetyl carnitine amide with taurine] | 30% | 62% |  | 1500 mg/kg | 4000 mg/kg |  | 25% |  |  | responders at 450 mg/kg ([3]; 450 mg/kg i.p.): 65%; responders at 150 mg/kg [4]: 65%; inhibition in vivo at 300 mg/kg [6]: 70%
CCCC(=O)OC(CC(=O)NCCS(=O)(=O)[O-])C[N+](C)(C)C (stereo not drawn) [OCOCH2CH2CH3; 2-sulfonyl ethyl amino] |  | 40% | 58% | 1500 mg/kg | 4000 mg/kg | 60% | 43% | 70% |  | responders at 300 mg/kg [3]: 50%
CCC(C)C(NC(=O)CC(C[N+](C)(C)C)OC(C)=O)C(=O)OC (stereo not drawn) |  | 45% |  | 500 mg/kg | 1200 mg/kg |  |  |  | 34% | inhibition in vivo at 40 mg/kg ([1]; 40 mg/kg i.p. (head)): 35%; responders at 100 mg/kg [3]: 50%; responders at 100 mg/kg [4]: 53%; inhibition in vivo at 40 mg/kg [6]: 65%
CCC(=O)OC(CC(=O)NC(CCC(=O)OC)C(=O)OC)C[N+](C)(C)C (stereo not drawn) |  | 45% | 47% | 400 mg/kg | 1200 mg/kg |  | 25% | 50% |  | responders at 70 mg/kg [3]: 40%; inhibition in vivo at 10 mg/kg [6]: 60%
CCC(=O)OC(CC(=O)NC(CC(=O)OC)C(=O)OC)C[N+](C)(C)C (stereo not drawn) | 25% | 50% |  | 590 mg/kg | 1800 mg/kg |  |  |  | 59% | responders at 100 mg/kg [3]: 70%; responders at 40 mg/kg ([4]; 40 mg/kg i.p. (head)): 51%; inhibition in vivo at 40 mg/kg [6]: 70%
COC(=O)CCC(NC(=O)CC(C[N+](C)(C)C)OC(C)=O)C(=O)OC (stereo not drawn) [COCH3; (1,3-dicarbomethoxy propyl) amino] |  | 40% | 70% | 1000 mg/kg | 3600 mg/kg |  |  |  | 19% | inhibition in vivo at 20 mg/kg ([1]; 20 mg/kg i.p. (head)): 40%; responders at 150 mg/kg ([3]; 150 mg/kg i.p.): 40%; inhibition in vivo at 20 mg/kg [6]: 65%
